Legend:
in vitro [1] = settings: human, liver microsomes
in vitro [2] = settings: human, hepatocytes

| half-life (in vitro [1]) [h] | half-life (in vitro [2]) [h] | Structure (SMILES) |
| --- | --- | --- |
| 0.233 | – | Cc1cccc(CN(Cc2ccccn2)[C@H]2CCNC2)c1C |
| > 2 | – | Fc1cccc(CN(C2CCOCC2)[C@H]2CCNC2)c1C(F)(F)F |
| > 2 | 1.38 | c1ccc(-c2ccccc2CN(C2CCOCC2)[C@H]2CCNC2)cc1 |
| > 2 | – | Clc1cccc(CN(CC2CC2)[C@H]2CCNC2)c1Cl |
| > 2 | 1.18 | Cc1cccc(CN(C2CCOCC2)[C@H]2CCNC2)c1Cl |
| > 2 | 1.73 | Cc1c(Cl)cccc1CN(C1CCOCC1)[C@H]1CCNC1 |
| 1.57 | – | COc1cccc(CN(C2CCOCC2)[C@H]2CCNC2)c1C |
| > 2 | – | Cc1cccc(CN(C2CCOCC2)[C@H]2CCNC2)c1C |
| > 2 | > 4 | Cc1c(CN(C2CCOCC2)[C@H]2CCNC2)cccc1C(F)(F)F |
| 1.02 | – | Clc1cccc(CN(Cc2ccccn2)[C@H]2CCNC2)c1Cl |
| 0.4 | – | Cc1cccc(CN(Cc2ccccn2)[C@@H]2CCNC2)c1C |
| > 2 | – | Cc1cccc(CN(C2CCOCC2)[C@@H]2CCNC2)c1C |
| > 2 | – | Clc1cccc(CN(CC2CC2)[C@@H]2CCNC2)c1Cl |
| > 2 | – | Cc1ccccc1CN(C1CCOCC1)[C@H]1CCNC1 |
| > 2 | – | FC(F)(F)c1ccccc1CN(C1CCOCC1)[C@H]1CCNC1 |
